# Test results published in publication PMC2685384, “Binding characteristics of the ovine membrane progesterone receptor alpha and expression of the receptor during the estrous cycle” (Reproductive Biology and Endocrinology : RB&E, 2009).
# Where two headings read alike, the source gives them in different places.
# How the values were obtained:
# [1] = biological target: T1, ovine membrane progesterone receptor alpha (mPRα) (Ovis aries, UniProt A0ACI6Q1G6); assay: radioligand competition against 3H-progesterone on mPRα-CHO membranes; assay type: binding
# T1 construct: gene PAQR7; ovine mPRα expressed in CHO cells; digitonin-treated crude membrane fractions
# T1 sequence (A0ACI6Q1G6 1-350): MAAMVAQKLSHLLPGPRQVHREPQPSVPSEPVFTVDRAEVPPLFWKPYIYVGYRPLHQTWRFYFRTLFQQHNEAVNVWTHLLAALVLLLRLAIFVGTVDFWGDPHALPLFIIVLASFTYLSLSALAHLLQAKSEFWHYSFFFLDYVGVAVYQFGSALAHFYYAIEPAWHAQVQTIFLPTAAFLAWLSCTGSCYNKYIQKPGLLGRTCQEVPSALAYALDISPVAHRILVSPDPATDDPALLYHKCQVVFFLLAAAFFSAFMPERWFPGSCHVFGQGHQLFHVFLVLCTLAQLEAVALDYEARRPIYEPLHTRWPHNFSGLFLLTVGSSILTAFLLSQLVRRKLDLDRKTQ
# [2] = biological target: T1, ovine membrane progesterone receptor alpha (mPRα); assay: 3H-progesterone saturation binding on membranes of stable mPRα-CHO cells (also competition, IC50 =[…])
structure (smiles),measurement,setting,value
"CC(=O)[C@@]1(O)CC[C@H]2[C@@H]3CCC4=CC(=O)CC[C@]4(C)[C@H]3CC[C@@]21C [17-OH-P4, 17α-hydroxyprogesterone]",IC50,[1]; read-out: IC50,735 nM
"CC(=O)[C@H]1CC[C@H]2[C@@H]3CCC4=CC(=O)CC[C@]4(C)[C@H]3CC[C@]12C [P4, progesterone]",Kd,[2],122 nM
"C[C@H](O)[C@H]1CC[C@H]2[C@@H]3CCC4=CC(=O)CC[C@]4(C)[C@H]3CC[C@]12C [20-OH-P4, 20α-hydroxyprogesterone]",IC50,[1],298 nM
